According to PMC10739246 (ACS Bio & Med Chem Au, 2023):
Converted amounts (≈) assume the structure as drawn. “Also recorded” adds a separate entry of the source. Like-named read-outs stand apart in the source and are kept apart here.

Key:
S. aureus (CCUG1800T) = assay: MIC, microdilution, S. aureus CCUG1800T; assay type: cell-based, Staphylococcus aureus; conditions: read-out: MIC S. aureus (CCUG1800T)
[1] = tested on: K. pneumoniae (ATCC 10031); assay: MIC, K. pneumoniae ATCC 10031; assay type: cell-based, Klebsiella pneumoniae
[2] = tested on: S. aureus (ATCC 43300) MRSA; assay: MIC, microdilution, MRSA ATCC 43300; assay type: cell-based, Staphylococcus aureus; conditions: norfloxacin-resistant strain
E. coli [3] = assay: microbe, parasite or virus in culture; conditions: Escherichia coli, read-out: MICC (MIC of the test compound alone)
E. faecalis (ATCC 19433) = assay: MIC, E. faecalis ATCC 19433; assay type: cell-based, Enterococcus faecalis
E. coli (W3110) = assay: MIC, microdilution, E. coli W3110; assay type: cell-based, Escherichia coli; conditions: for MIC: Gram-negative strain, average of duplicate experiments, read-out: MIC E. coli (W3110); for concentration (MIC against E. coli W3110): Tab. S11, concentrations represent MIC values
E. coli [4] = conditions: for FICC (fractional inhibitory concentration of the test compound): MICCcheckerboard/MICC; for Outcome: checkerboard with mupirocin; for FICM (MICMcheckerboard/MICM): mupirocin alone 64 µg/mL; for FICI (fractional inhibitory concentration index): with mupirocin, FICC+FICM
P. aeruginosa (PAO1) = assay: MIC, microdilution, P. aeruginosa PAO1; assay type: cell-based, Pseudomonas aeruginosa
[5] = tested on: M. tuberculosis (MC26020); assay: microbe, parasite or virus in culture; assay type: cell-based, Mycobacterium tuberculosis; conditions: for MIC: Mycobacterium tuberculosis, read-out: MIC M. tuberculosis (MC26020)
[6] = tested on: norfloxacin-resistant clinical isolate of E. coli; assay: MIC, microdilution, norfloxacin-resistant clinical isolate of E. coli; assay type: cell-based, Escherichia coli; conditions: read-out: MIC E. coli (norfloxacin-resistant strain)
MreB in B. subtilis MW10 = assay: MreB mobility assay; assay type: cell-based, Bacillus subtilis; conditions: B. subtilis MW10, 1 h of antibiotic exposure
Procedure: MreB is an actin homologue that forms filamentous structures along the lateral axis of the cell. It moves along the length of the cells in a spiraling pattern thereby driving lateral peptidoglycan synthesis.[36],[37] MreB mobility is sensitive to inhibition of peptidoglycan synthesis and so far, every cell wall synthesis inhibitor we tested abolished MreB movement (see Figure S70 for examples).
Expression of msfGFP-MreB was induced with 0.3% xylose. Pictures were taken after 1 h of antibiotic exposure. Two images of the same field of view were recorded 30 s apart and overlaid in ImageJ to visualize MreB mobility. A perfect overlap (yellow) indicates stalled MreB movement, while distinct red and green foci are indicative of MreB mobility. Scale bar 2 μm.
Fig. S70: MreB motility in B. subtilis MW10 after treatment with different cell wall synthesis inhibitors. Expression of GFP-MreB was induced with 0.3% xylose. Cells were treated with 1x […]
Two images of the same field of view were recorded 30 sec apart and overlaid in ImageJ to visualize MreB mobility. A perfect overlap (yellow) indicates stalled MreB movement while distinct red and green spots are indicative of MreB mobility. Scale bar 2 µm.

[7] = tested on: cell wall biosynthesis in B. subtilis DSM402; assay: Summary of cell wall synthesis experiments; assay type: cell-based, Bacillus subtilis
B. subtilis DSM402 [8] = conditions: for μM (concentration used, 1x MIC): Table 2, cells treated with 1x MIC; for concentration (MIC against B. subtilis DSM402): Tab. S13, concentrations represent MIC values
[9] = tested on: PonA in B. subtilis TNVS45; assay: PonA localization; conditions: 1x MIC; 30 min (vancomycin) or 1 h
B. subtilis DSM402 [10] = assay: Peptidoglycan integrity assay (acetic acid/methanol fixation); conditions: 1x MIC; 30 min (cell wall inhibitors) or 60 min
[11] = tested on: MraY in B. subtilis TNVS284; assay: MraY localization; conditions: 1x MIC; 30 min (vancomycin) or 1 h
[12] = tested on: MurG in B. subtilis TNVS175; assay: MurG localization; assay type: cell-based, Bacillus subtilis; conditions: 1x MIC; 30 min (vancomycin) or 1 h;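 also: normal MurG forms small membrane spots and peptidoglycan inhibition gives large clusters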
[13] = tested on: PbpB in B. subtilis EKB46; assay: PbpB localization; conditions: 1x MIC; 30 min (vancomycin) or 1 h
B. subtilis DSM402 [14] = assay: Bacterial cytological profiling (BCP) in B. subtilis DSM402; assay type: cell-based, Bacillus subtilis; conditions: for DAPI / phase contrast / FM4-64: 1x MIC, 1 h; for DAPI: DNA condensation; for phase contrast: indicates cell lysis; for FM4-64: membrane stain; for gyrase inhibition / membrane damage: interpretation of BCP in B. subtilis
E. coli W3110 = assay: Bacterial cytological profiling (BCP) in E. coli W3110; assay type: cell-based, Escherichia coli; conditions: for DAPI / phase contrast / FM4-64: 1x MIC, 1 h; for DAPI: DNA condensation; for phase contrast: indicates cell lysis; for FM4-64: membrane stain; for gyrase inhibition / membrane damage: interpretation of BCP in E. coli
E. coli BCB472 = assay: GlpT localization (inner membrane) in E. coli BCB472; conditions: 1x MIC, 1 h; GFP-tagged membrane protein
[15] = Klebsiella pneumoniae, ATCC10031
[16] = Enterococcus faecalis, ATCC19433

CCn1cc(C(=O)O)c(=O)c2cc(F)c(N3CCN(C(=O)CN4CCCCC4)CC3)cc21 [7a]
MIC (S. aureus (CCUG1800T); Staphylococcus aureus): 8.99 µM (≈ 4 µg/mL) | MIC [1, 15]: 144 µM (≈ 64 µg/mL) | MIC ([2]; Staphylococcus aureus): 576 µM (≈ 256 µg/mL) | MIC (E. coli [3]): 16 µg/mL | MIC (E. faecalis (ATCC 19433); [16]): 4.49 µM (≈ 2 µg/mL) | MIC (E. coli (W3110); Escherichia coli): 36 µM (≈ 16 µg/mL) | FICC (fractional inhibitory concentration of the test compound) (E. coli [4]): 0.252 | Outcome (E. coli [4]): additive (>0.5 to ≤4.0 as additive (no interaction)) | FICM (MICMcheckerboard/MICM) (E. coli [4]): 0.75 | FICI (fractional inhibitory concentration index) (E. coli [4]): 1.002 | MIC (P. aeruginosa (PAO1); Pseudomonas aeruginosa, PAO1): > 1150 µM | MIC [5]: 72 µM (≈ 32 µg/mL) | MIC ([6]; Escherichia coli): > 1150 µM

CN[C@H](CC(C)C)C(=O)N[C@H]1C(=O)N[C@@H](CC(N)=O)C(=O)N[C@H]2C(=O)N[C@H]3C(=O)N[C@H](C(=O)N[C@H](C(=O)O)c4cc(O)cc(O)c4-c4cc3ccc4O)[C@H](O)c3ccc(c(Cl)c3)Oc3cc2cc(c3O[C@@H]2O[C@H](CO)[C@@H](O)[C@H](O)[C@H]2O[C@H]2C[C@](C)(N)[C@H](O)[C@H](C)O2)Oc2ccc(cc2Cl)[C@H]1O [Van, vancomycin, reference compound]
MreB mobility (MreB in B. subtilis MW10): static with foci | CWB inhibited? [7]: yes | μM (concentration used, 1x MIC) (B. subtilis DSM402 [8]): 0.68 µM | protein localization PonA [9]: septal | PG integrity (B. subtilis DSM402 [10]): compromised | protein localization MraY [11]: rough | protein localization MurG [12]: patchy/dispersed | protein localization PbpB [13]: smooth

CCn1cc(C(=O)O)c(=O)c2cc(F)c(N3CCN(CN4C(=O)C(=O)c5cc(F)ccc54)CC3)cc21 [20a]
MIC (S. aureus (CCUG1800T)): 8.05 µM (≈ 4 µg/mL) | MIC [1]: 8.05 µM (≈ 4 µg/mL) | MIC [2]: >1031.3 µM | DAPI (B. subtilis DSM402 [14]): condensed | phase contrast (B. subtilis DSM402 [14]): dark | FM4-64 (B. subtilis DSM402 [14]): patchy | gyrase inhibition (B. subtilis DSM402 [14]): yes | membrane damage (B. subtilis DSM402 [14]): yes | MreB mobility (MreB in B. subtilis MW10): much smaller clusters and more clusters per cell; also recorded: mobile with static foci | DAPI (E. coli W3110): condensed | phase contrast (E. coli W3110): dark | FM4-64 (E. coli W3110): smooth | gyrase inhibition (E. coli W3110): yes | membrane damage (E. coli W3110): no | CWB inhibited? [7]: yes ^b | MIC (E. faecalis (ATCC 19433)): 3.02 µM (≈ 1.5 µg/mL) | MIC (E. coli (W3110)): 3.02 µM (≈ 1.5 µg/mL) | concentration (MIC against E. coli W3110) (E. coli (W3110)): 3.02 µM | concentration (MIC against B. subtilis DSM402) (B. subtilis DSM402 [8]): 16.11 µM | μM (concentration used, 1x MIC) (B. subtilis DSM402 [8]): 16.11 µM | MIC (P. aeruginosa (PAO1)): 17.12 µM (≈ 8.5 µg/mL) | protein localization PonA [9]: neither compound affected the localization; also recorded: septal | PG integrity (B. subtilis DSM402 [10]): came close to the cutoff value; also recorded: intact | protein localization MraY [11]: neither compound affected the localization; also recorded: rough | MIC M. tuberculosis (MC26020) [5]: 64.45 µM (≈ 32 µg/mL) | MIC ([6]; norfloxacin-resistant clinical isolate): 16.11 µM (≈ 8 µg/mL) | protein localization MurG [12]: distinct MurG clusters all over the cells; also recorded: patchy | protein localization PbpB [13]: neither compound affected the localization; also recorded: smooth | GlpT (E. coli BCB472): smooth

CC(C)(N)[C@H](NC(=O)c1ccc(C#CC#C[C@@H]2C[C@H]2CO)cc1)C(=O)NO [ACHN-975, reference compound]
MIC (E. coli [3]): 0.5 µg/mL | FICM (MICMcheckerboard/MICM) (E. coli [4]): 0.0469 | FICI (fractional inhibitory concentration index) (E. coli [4]): 0.2969

CCn1cc(C(=O)O)c(=O)c2cc(F)c(N3CCN(C(=O)CN4CCOCC4)CC3)cc21 [7b]
MIC (S. aureus (CCUG1800T); Staphylococcus aureus): 4.47 µM (≈ 2 µg/mL) | MIC [1, 15]: > 1150 µM | MIC ([2]; Staphylococcus aureus): 287 µM (≈ 128 µg/mL) | MIC (E. coli [3]): 32 µg/mL | MIC (E. faecalis (ATCC 19433); [16]): 8.95 µM (≈ 4 µg/mL) | MIC (E. coli (W3110); Escherichia coli): 71.7 µM (≈ 32 µg/mL) | FICC (fractional inhibitory concentration of the test compound) (E. coli [4]): 0.5 | Outcome (E. coli [4]): additive (>0.5 to ≤4.0 as additive (no interaction)) | FICM (MICMcheckerboard/MICM) (E. coli [4]): 0.0313 | FICI (fractional inhibitory concentration index) (E. coli [4]): 0.5313 | MIC (P. aeruginosa (PAO1); Pseudomonas aeruginosa, PAO1): 860 µM (≈ 384 µg/mL) | MIC [5]: 1.67 µM (≈ 0.746 µg/mL) | MIC ([6]; Escherichia coli): 143 µM (≈ 64 µg/mL)

CCn1cc(C(=O)O)c(=O)c2cc(F)c(N3CCN(C(=O)CCl)CC3)cc21 [compound 2]
MIC (S. aureus (CCUG1800T)): 2.52 µM (≈ 0.997 µg/mL) | MIC [1]: 121.27 µM (≈ 48 µg/mL) | MIC [2]: 161.69 µM (≈ 64 µg/mL) | DAPI (B. subtilis DSM402 [14]): condensed | phase contrast (B. subtilis DSM402 [14]): dark | FM4-64 (B. subtilis DSM402 [14]): smooth | gyrase inhibition (B. subtilis DSM402 [14]): yes | membrane damage (B. subtilis DSM402 [14]): no | DAPI (E. coli W3110): condensed | phase contrast (E. coli W3110): dark | FM4-64 (E. coli W3110): smooth | gyrase inhibition (E. coli W3110): yes | membrane damage (E. coli W3110): no | CWB inhibited? [7]: no | MIC (E. faecalis (ATCC 19433)): 6.31 µM (≈ 2.5 µg/mL) | MIC (E. coli (W3110)): 6.31 µM (≈ 2.5 µg/mL) | concentration (MIC against E. coli W3110) (E. coli (W3110)): 6.31 µM | FICC (fractional inhibitory concentration of the test compound) (E. coli [4]): 1.25 | MICC (MIC of the test compound alone) (E. coli [4]; average of at least two replicates): 2 µg/mL | Outcome (E. coli [4]): additive (>0.5 to ≤4.0 as additive (no interaction)) | MICCcheckerboard (MIC of the test compound in checkerboard assay) (E. coli [4]; combined with mupirocin): 2.5 µg/mL | FICM (MICMcheckerboard/MICM) (E. coli [4]): 0.2656 | MICMcheckerboard (MIC of mupirocin in checkerboard assay) (E. coli [4]; mupirocin combined with the compound of the line): 7.8 µg/mL | FICI (fractional inhibitory concentration index) (E. coli [4]): 1.5156 | concentration (MIC against B. subtilis DSM402) (B. subtilis DSM402 [8]): 1.89 µM | μM (concentration used, 1x MIC) (B. subtilis DSM402 [8]): 1.89 µM | MIC (P. aeruginosa (PAO1)): 192 µM (≈ 76 µg/mL) | PG integrity (B. subtilis DSM402 [10]): came close to the cutoff value; also recorded: intact | MIC M. tuberculosis (MC26020) [5]: >1293.54 µM | MIC [6]: >1293.54 µM | GlpT (E. coli BCB472): smooth

C/C(=C\C(=O)OCCCCCCCCC(=O)O)C[C@@H]1OC[C@H](C[C@@H]2O[C@H]2[C@@H](C)[C@H](C)O)[C@@H](O)[C@H]1O [Mup, mupirocin]
MIC (E. coli [3]): 64 µg/mL
